# Data: paper PMC6468747 (Cancers, 2019)
# Tests used:
# MDA-MB-231 cells = experiment: Real time cell invasion assay (xCELLigence); format: cell-based, human; details: 2.5, 5 and 10 μM, 24 h pre-treatment
# Procedure: Real-time measurement of cell invasion was performed using the xCELLigence RTCA DP device (ACEA Biosciences, San Diego, CA, USA). MDA-MB-231 cells were treated with VNLG-152 (2.5, 5, and 10 μM) for 24 h, cells being treated with VNLG-152 when they were plated. Subsequently, cells were seeded (75,000/well) onto 16-well microelectronic censored, two chamber Matrigel-coated trans-well plates (CIM-plates) containing the respective drug in serum-free condition. Medium containing 10% serum (chemo-attractant) was added to the bottom wells. Invasion of cells was measured from the interaction of cells with the electrodes on the bottom surface of top chamber and represented as a change in cell index (CI), an arbitrary unit derived from the relative change in electrical impedance across microelectronic sensor arrays. The electrical impedance was captured every 3 min for an experimental duration of 24 h. The rate of invasion is expressed as the CI or the change in electrical impedance at each timepoint. Values are expressed as the ±SEM of the duplicate wells from three independent experiments.
# Br-001 tumor xenografts = experiment: Patient-derived TNBC xenograft (PDX), IP; format: in vivo, mice; details: 10 mg/kg/day IP
# Procedure: Female NSG (NOD.Cg-PrkdcscidIl2rgtm1Wjl/SzJ) mice (Jackson Laboratory) 5–6 weeks of age were housed under complete aseptic conditions, fed autoclaved pellets and sterile water ad libitum. Primary triple negative breast cancer tissue from a patient in University of Maryland Medical Center ([…]) was excised during surgery, de-identified and then implanted into the mammary fat pad of female NSG mice. After expansion and viable freeze back, breast PDX (Br-001) was grown in three mice as a subcutaneous tumor. When tumors reached approximately 600–800 mm^3, mice were euthanized, tumors excised aseptically and cut into 3 mm × 3 mm pieces and re-implanted subcutaneously in female NSG mice. The established xenografts were subsequently passaged from mouse to mouse to expand xenograft numbers. […] Tumors were measured and processed as described for the MDA-MB-231 xenograft model.
# MDA-MB-231-Luc cells = experiment: Experimental lung metastasis assay; format: in vivo, SCID mice; details: 20 mg/kg IP, 2 weeks, IVIS luciferase signal in lung
# Procedure: The MDA-MB-231-luc cells were the kind gift of Dr. Stuart Martin (UMB). Cells were grown in DMEM with 10% FBS, hygromycin and G418 to subconfluence (~50–70%) and then trypsinized, washed, and resuspended in PBS. 1 × 10^6 cells were injected IV in a volume of 100 µL. Mice were treated for 14 days with vehicle or VNLG-152 by IP injection at doses of 20 mg/kg. The luciferase signals in the mice were detected and photographed using an IVIS in vivo image system on days 0, 1 and 14 [81].
# mTORC1 signaling = experiment: Western blot of mTORC1 signaling in MDA-MB-231 and MDA-MB-468 cells; format: cell-based, human; details: 72 h
# Procedure: MDA-MB-231, MDA-MB-468, MDA-MB-436, MDA-MB-453, HCC-1806, and MFM-223 cells were purchased from American Type Culture Collection (ATCC, Manassas, VA, USA), and authenticated at the Biopolymer/Genomics Core Facility, University of Maryland Baltimore. Cells were tested for mycoplasma contamination at the University of Maryland Marlene and Stewart Greenebaum Cancer Center (UMGCC) Translational Shared Service. Cells were cultured in the recommended media supplemented with 10% FBS and plated 1 day prior to treatment. Cells were treated with the indicated dose and time in the figure at 37 °C in 5% CO2. Protein lysates were harvested in RIPA lysis buffer (Sigma). Western blotting was done as described previously with antibodies described above.
smiles,measurement,setting,value
"CC1=C(/C=C/C(C)=C/C=C/C(C)=C/C(=O)Nc2ccc(F)cc2)C(C)(C)CCC1n1ccnc1 (racemic) [VNLG-152R, 4-(±)-(1H-imidazol-1-yl)-N-(4-fluorophenyl)-(E)-retinamide]",invasive ability (cell index),MDA-MB-231 cells,significantly lower
same,changes in body weights,Br-001 tumor xenografts,No significant changes in body weights were observed
same,tumor growth inhibition (TGI),"Br-001 tumor xenografts; 5 days a week, 17 days",73.3%
same,inhibition of metastasis,MDA-MB-231-Luc cells,~ 80%
same,"depletion of p-mTOR (Ser2448), p4E-BP1, peIF4E and p-p70 S6K",mTORC1 signaling,strong dose-dependent depletion
